Source: patent US20090069180A1 (priority 2006, published 2009)

Legend:
Pyricularia oryzae = assay type: cell-based; settings: 125 ppm, microtiter plate, absorption at 405 nm on day 7 after inoculation, relative to active compound-free control

Row | Structure (SMILES) | relative pathogen growth (Pyricularia oryzae) [%] | melting point [°C]
1 | CC1CCCN1c1nc(C#N)nc(Cl)c1/C(Br)=C(\Br)[Si](C)(C)C (stereo not drawn) [C-1, 4-Chloro-2-cyano-5-((E)-1,2-dibromo-2-trimethylsilylvinyl)-6-(2-methylpyrrolidin-1-yl)-pyrimidine] | 0 | 166 to 168
2 | CONC(=N)c1nc(Cl)c(/C(Br)=C(/Cl)Br)c(N2CCCC2C)n1 (stereo not drawn) [C-4, N-Methoxy-4-chlor-5-((E)-2-chloro-1,2-dibromovinyl)-6-(2-methyl-pyrrolidin-1-yl)-2-pyrimidinecarboximidamide] | 0 | 
